# Data taken from ChEMBL document CHEMBL1201862, “PubChem BioAssay data set” (2004).
# The source made the active and inactive calls.
# How the values were obtained:
# [1] = target: T1, Short transient receptor potential channel 4 (Mus musculus, UniProt Q9QUQ5); assay: mouse TRPC4 channel inhibitors, dose response, cell-based, HEK293 TRPC4/mu-opioid, Fluo-4 calcium (AID 434942); format: functional;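 further: potency of inhibitors blocking the TRPC4 calcium response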
# T1 sequence (Q9QUQ5 whole entry): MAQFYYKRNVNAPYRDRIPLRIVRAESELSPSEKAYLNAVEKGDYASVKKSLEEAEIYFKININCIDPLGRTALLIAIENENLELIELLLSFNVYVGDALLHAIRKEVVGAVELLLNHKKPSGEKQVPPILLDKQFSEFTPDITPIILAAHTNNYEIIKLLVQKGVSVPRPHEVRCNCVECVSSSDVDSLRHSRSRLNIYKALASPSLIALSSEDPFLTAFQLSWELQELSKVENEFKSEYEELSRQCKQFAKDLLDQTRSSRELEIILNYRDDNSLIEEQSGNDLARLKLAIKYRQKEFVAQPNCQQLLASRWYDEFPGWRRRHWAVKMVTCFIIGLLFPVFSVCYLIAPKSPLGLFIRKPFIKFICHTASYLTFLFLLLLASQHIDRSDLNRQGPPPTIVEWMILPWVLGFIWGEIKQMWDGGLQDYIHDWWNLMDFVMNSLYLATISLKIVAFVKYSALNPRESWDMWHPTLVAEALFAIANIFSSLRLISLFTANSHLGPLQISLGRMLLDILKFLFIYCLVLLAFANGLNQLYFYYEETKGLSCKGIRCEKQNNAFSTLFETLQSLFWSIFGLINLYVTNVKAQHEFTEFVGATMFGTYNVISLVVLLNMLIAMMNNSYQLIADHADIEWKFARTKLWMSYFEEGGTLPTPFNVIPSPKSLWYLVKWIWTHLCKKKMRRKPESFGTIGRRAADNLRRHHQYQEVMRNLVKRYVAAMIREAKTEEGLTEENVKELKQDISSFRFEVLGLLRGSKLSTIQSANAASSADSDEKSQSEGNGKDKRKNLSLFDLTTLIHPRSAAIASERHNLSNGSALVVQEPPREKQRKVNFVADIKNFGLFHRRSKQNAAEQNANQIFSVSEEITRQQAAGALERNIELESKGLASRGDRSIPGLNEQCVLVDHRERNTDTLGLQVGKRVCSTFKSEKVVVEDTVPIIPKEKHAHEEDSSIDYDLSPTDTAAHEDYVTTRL
# [2] = target: T2, Carboxy-terminal domain RNA polymerase II polypeptide A small phosphatase 1 (Homo sapiens, UniProt Q9GZU7); assay: inhibitors of CTDSP1, concentration-response testing, biochemical assay, absorbance-based, actives from ultra-high-throughput screening (AID 540297); format: functional
# T2 sequence (Q9GZU7 whole entry): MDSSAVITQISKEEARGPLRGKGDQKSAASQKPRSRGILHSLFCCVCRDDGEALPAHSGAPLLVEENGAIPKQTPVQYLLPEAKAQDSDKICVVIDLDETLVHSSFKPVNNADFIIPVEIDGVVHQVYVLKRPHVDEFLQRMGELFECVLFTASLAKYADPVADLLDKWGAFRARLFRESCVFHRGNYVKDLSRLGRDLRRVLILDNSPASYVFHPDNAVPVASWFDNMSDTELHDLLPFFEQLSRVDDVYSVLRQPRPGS
# [3] = target: T3, Corticotropin-releasing factor receptor 2/Corticotropin-releasing factor-binding protein (Homo sapiens, UniProt P24387+Q13324); assay: activators of CRF receptor 2 with binding protein – uHTS hits, confirmation (AID 602473); format: functional; conditions: read-out: EC50_Mean
# T3 sequence (Q13324 whole entry): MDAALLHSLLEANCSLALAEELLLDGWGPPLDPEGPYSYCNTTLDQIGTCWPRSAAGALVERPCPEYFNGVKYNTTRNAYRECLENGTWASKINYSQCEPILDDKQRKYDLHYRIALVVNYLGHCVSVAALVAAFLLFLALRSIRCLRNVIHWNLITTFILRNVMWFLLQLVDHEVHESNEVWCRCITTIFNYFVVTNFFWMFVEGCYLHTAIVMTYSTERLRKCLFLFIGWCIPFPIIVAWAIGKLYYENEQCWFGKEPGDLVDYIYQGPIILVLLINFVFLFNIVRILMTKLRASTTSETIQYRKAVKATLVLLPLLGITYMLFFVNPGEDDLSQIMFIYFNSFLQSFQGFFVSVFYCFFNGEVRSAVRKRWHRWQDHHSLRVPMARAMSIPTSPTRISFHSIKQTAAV
# T3 sequence (P24387 whole entry): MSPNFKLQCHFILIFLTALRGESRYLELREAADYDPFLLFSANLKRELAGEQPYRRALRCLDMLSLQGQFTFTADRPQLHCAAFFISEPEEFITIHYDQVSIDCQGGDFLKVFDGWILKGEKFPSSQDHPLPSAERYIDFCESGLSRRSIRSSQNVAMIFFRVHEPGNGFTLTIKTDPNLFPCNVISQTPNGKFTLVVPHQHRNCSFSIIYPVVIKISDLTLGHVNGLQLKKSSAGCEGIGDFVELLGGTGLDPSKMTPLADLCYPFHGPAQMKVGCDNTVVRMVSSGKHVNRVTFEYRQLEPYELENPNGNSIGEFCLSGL
# [4] = CRF-BP/CRF-R2 complex antagonists, dose response, cell-based, uHTS hits, 384-well (AID 651639); format: functional, Homo sapiens; conditions: read-out: IC50_Mean
# [5] = target: T3, Corticotropin-releasing factor receptor 2/Corticotropin-releasing factor-binding protein; assay: Dose Response confirmation of uHTS hits for small molecule antagonists of the CRF-binding protein and CRF-R2 receptor complex.; format: functional; conditions: read-out: IC50_Mean
# [6] = test system: Vero; assay: host cell cytotoxicity of antiviral hits, dose response, cytotoxicity control for West Nile virus antiviral project, secondary assay (AID 1650); format: functional; conditions: Chlorocebus sabaeus
# [7] = A cytotoxicity screen of small molecule inhibitors of the PhoP region in Salmonella typhi identified in the primary screen. [Related pubchem assays: 1850, 1864, 1985 ]; format: functional
# [8] = cells; format: functional, cell-based
# [9] = cytotoxicity toward NIH3T3 fibroblasts, dose response, counter-screen, cell-based, ATP luminescence, mouse fibroblasts (AID 2010); format: functional; conditions: NIH3T3;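 further: cells exposed to compound for about 90 hours before reading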
# [10] = target: T4, Mannose-6-phosphate isomerase (Homo sapiens, UniProt P34949); assay: human PMI inhibitors, high substrate, primary screen, biochemical, fluorescence intensity, high mannose 6-phosphate (AID 1220)
# T4 sequence (P34949 whole entry): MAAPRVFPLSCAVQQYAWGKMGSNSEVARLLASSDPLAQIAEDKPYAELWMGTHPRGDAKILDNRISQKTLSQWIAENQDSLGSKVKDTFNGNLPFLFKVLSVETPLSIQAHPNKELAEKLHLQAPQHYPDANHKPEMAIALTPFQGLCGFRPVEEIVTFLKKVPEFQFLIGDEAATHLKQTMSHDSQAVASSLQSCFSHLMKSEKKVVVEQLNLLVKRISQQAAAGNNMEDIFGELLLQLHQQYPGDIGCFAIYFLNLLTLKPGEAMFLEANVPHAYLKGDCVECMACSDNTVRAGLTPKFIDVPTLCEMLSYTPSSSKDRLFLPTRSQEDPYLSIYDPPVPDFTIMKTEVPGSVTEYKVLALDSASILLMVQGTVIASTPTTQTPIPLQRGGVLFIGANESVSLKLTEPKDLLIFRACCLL
# [11] = target: DNA dC->dU-editing enzyme APOBEC-3G (Homo sapiens, UniProt Q9HC16); assay: Dose Response confirmation of small molecule APOBEC3G DNA Deaminase Inhibitors via a fluorescence-based single-stranded DNA deaminase assay. [Related pubchem assays (depositor defined):AID493012, AID493028]; format: functional
# Sequence of DNA dC->dU-editing enzyme APOBEC-3G (Q9HC16 whole entry): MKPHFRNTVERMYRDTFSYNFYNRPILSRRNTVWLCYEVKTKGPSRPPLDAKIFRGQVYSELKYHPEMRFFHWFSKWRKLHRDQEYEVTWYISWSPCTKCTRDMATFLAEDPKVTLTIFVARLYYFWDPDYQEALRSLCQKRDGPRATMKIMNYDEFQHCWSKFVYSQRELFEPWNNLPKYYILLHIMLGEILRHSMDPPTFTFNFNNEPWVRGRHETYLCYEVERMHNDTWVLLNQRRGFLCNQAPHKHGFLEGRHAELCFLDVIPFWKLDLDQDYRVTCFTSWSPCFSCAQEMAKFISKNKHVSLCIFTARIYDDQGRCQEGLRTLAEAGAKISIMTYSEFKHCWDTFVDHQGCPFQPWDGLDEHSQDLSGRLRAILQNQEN
# [12] = inhibitors of intracellular T. cruzi replication, confirmation, NIH3T3 host cells, beta-gal luminescence (AID 2044); format: functional, cell-based;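 further: intracellular parasites grown in NIH/3T3 mouse fibroblasts as host cells; luminescent beta-galactosidase reporter signal from transgenic T. cruzi replicating inside host cells; inhibitors lower the luminescence signal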
# [13] = target: T5, Fatty acid synthase (Homo sapiens, UniProt P49327); assay: FAS thioesterase domain inhibitors, dose response, biochemical, endpoint fluorescence intensity, uHTS hits (AID 624327); format: functional;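 further: fluorescence from hydrolysis of an O-methyl fluorescein acyl ester substrate by the enzyme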
# T5 sequence (P49327 whole entry, the tested form may be a part): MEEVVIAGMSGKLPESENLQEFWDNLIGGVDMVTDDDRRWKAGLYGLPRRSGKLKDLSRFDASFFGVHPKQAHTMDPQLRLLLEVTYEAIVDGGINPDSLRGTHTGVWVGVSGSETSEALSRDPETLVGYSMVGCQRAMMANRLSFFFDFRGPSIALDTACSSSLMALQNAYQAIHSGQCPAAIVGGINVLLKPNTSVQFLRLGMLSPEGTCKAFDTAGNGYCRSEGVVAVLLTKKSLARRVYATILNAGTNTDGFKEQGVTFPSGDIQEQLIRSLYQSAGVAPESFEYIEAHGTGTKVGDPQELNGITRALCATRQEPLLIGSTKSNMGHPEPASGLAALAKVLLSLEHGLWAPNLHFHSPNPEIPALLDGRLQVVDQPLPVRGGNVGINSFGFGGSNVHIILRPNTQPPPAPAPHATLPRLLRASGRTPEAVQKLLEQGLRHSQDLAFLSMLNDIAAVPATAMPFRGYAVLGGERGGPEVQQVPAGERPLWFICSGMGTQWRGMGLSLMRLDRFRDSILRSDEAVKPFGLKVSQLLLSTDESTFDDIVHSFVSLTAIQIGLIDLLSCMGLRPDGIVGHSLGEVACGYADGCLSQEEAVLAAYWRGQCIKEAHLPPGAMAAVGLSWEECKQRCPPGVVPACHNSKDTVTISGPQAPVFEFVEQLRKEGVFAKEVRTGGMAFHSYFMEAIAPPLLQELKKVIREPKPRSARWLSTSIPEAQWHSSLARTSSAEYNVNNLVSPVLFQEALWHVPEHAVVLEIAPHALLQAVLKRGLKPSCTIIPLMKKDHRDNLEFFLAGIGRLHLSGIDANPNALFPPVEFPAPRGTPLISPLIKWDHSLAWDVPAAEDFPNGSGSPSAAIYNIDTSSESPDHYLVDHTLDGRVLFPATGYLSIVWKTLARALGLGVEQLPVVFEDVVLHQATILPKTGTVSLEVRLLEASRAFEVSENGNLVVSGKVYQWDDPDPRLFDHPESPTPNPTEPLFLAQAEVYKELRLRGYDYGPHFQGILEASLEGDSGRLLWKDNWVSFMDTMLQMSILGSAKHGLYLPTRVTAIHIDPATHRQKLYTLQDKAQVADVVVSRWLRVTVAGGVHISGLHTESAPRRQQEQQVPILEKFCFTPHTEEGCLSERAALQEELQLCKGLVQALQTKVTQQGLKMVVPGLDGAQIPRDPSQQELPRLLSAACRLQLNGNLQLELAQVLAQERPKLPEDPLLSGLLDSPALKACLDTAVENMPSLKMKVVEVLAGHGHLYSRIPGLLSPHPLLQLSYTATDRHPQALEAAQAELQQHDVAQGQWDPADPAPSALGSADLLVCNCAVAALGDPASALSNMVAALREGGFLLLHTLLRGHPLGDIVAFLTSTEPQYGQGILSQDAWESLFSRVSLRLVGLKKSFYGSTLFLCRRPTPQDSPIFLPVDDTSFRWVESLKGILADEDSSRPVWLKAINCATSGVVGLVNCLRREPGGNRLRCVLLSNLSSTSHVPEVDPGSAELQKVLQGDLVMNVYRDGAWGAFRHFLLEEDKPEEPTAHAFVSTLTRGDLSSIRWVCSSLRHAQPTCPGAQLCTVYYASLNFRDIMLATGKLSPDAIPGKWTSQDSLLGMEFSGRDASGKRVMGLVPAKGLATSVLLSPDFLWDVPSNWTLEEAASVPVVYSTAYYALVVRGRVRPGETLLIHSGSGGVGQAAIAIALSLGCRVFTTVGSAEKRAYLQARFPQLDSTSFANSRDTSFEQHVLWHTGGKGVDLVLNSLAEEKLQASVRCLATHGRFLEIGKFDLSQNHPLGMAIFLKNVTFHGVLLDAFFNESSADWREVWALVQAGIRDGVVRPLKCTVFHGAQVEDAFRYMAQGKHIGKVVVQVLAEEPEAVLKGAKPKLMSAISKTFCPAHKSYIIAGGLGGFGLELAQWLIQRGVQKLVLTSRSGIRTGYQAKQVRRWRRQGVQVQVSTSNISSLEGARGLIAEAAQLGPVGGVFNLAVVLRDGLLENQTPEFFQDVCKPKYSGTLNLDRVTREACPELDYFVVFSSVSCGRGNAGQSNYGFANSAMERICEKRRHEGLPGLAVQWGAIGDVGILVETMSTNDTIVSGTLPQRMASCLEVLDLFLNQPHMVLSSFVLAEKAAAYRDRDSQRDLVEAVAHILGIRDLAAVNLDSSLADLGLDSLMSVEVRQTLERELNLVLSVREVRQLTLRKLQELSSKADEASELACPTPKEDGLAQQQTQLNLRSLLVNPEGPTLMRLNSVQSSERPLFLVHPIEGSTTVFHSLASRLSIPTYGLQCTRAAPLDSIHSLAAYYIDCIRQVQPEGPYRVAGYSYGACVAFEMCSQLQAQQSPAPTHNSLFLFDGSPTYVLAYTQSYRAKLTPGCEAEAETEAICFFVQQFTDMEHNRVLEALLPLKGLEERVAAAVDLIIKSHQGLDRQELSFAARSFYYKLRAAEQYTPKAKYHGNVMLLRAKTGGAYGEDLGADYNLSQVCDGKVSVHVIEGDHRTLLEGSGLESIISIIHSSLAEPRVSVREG
# [14] = target: T5, Fatty acid synthase; assay: FAS thioesterase domain inhibitors, dose response, biochemical, kinetic fluorescence intensity (AID 624326); format: functional;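 further: rate of fluorescence rise from hydrolysis of a fluorogenic O-methyl fluorescein ester substrate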
# [15] = target: Luciferin 4-monooxygenase (Photinus pyralis, UniProt P08659); assay: firefly luciferase enzyme inhibitors, dose response, biochemical, luminescence (AID 1891)
# Sequence of Luciferin 4-monooxygenase (P08659 whole entry): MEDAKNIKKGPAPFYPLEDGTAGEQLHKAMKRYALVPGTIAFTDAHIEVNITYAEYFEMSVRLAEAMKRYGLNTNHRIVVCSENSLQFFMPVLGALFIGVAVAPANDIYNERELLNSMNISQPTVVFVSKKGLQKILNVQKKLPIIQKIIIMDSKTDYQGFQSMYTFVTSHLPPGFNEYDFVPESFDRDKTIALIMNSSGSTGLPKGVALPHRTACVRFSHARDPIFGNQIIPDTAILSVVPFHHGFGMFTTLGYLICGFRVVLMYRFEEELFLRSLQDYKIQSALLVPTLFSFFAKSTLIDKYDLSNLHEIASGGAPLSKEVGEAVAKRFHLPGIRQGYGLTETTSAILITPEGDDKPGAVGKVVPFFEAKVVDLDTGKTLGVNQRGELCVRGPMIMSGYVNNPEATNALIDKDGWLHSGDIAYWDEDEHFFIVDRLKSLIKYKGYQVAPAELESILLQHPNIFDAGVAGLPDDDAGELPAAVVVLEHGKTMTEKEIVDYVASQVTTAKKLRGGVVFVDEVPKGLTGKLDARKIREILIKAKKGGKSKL
# [16] = Luminescence Cell-Based Dose Confirmation HTS to Identify Inhibitors of Platelet Dense Granule Release. [Related pubchem assays: 1663 (Primary HTS), 1678 (Summary of Project)]; format: functional
compound,measurement,setting,value
Cc1ccc(C)c2c(N)c3c(nc12)CCCCC3.O=C(O)c1cncc(Br)c1,EC50,[1],0.944 µM (active)
COCCCN(C(=O)c1cc(-c2ccco2)nc2ccccc12)c1c(N)n(Cc2ccccc2)c(=O)[nH]c1=O,IC50,[2],12 µM (active)
COc1ccc2c3c1OC1C(O)C=CC4C(C2)[N+](C)(C)CCC341 (configuration not stated),IC50,[2],7 µM (active)
Cc1nc2ccccc2n1CC(O)COC1CCCCC1 (configuration not stated),EC50,[3],> 53 µM (inactive)
same,IC50,[4],8.02 µM (active)
same,IC50,[5],41.8 µM (active)
O=S(=O)(CC(CN1CCCCC1)N1CCCCC1)c1ccccc1 (configuration not stated),CC50,[6],14.4 µM (active)
COc1cccc(NC2=NC(N)=NC3(CCCCC3)N2)c1,EC50,[7],> 50 µM (active)
CC(C)c1ccc(N(C(=O)c2snc(C(N)=O)c2N)C(C(=O)NC2CCCC2)c2ccncc2)cc1 (configuration not stated),EC50,[8],> 350 µM (not active)
Cc1nc([N+](=O)[O-])nn1C12CC3CC(CC(Br)(C3)C1)C2,EC50,[9],> 60 µM (not active)
same,IC50,[10],26.3 µM (active)
same,IC50,[11],49.6 µM (active)
same,EC50,[12],0.105 µM (active)
COC(=O)c1cc(OC)c(OC)cc1NC(=O)c1c(-c2ccccc2Cl)noc1C,EC50,[3],> 53 µM (inactive)
same,IC50,[4],> 20 µM (inactive)
same,IC50,[5],< 0.368 µM (active)
Cc1cccc(N2CCN(Cc3ccoc3)CC2)c1C,EC50,[1],0.668 µM (active)
CC(CCc1ccco1)NC(=O)c1cccc2c1C(=O)N(C1CCCCC1)C2 (configuration not stated),EC50,[3],> 53 µM (inactive)
same,IC50,[4],> 20 µM (inactive)
same,IC50,[5],< 0.368 µM (active)
Cc1cccc(C(=O)NCCC(=O)Nc2ccc(F)c([N+](=O)[O-])c2)c1,IC50,[13],12.3 µM (active)
same,IC50,[14],9.57 µM (active)
same,EC50,[7],> 50 µM (active)
C/C=C/c1ccc(OCc2cc(=O)n3cc(C)ccc3n2)c(OC)c1,EC50,[15],> 112 µM (not active)
same,EC50,[16],58.2 µM (active)
same,EC50,[7],> 50 µM (active)
CCOc1ccccc1-n1c(SCC(=O)Nc2nccs2)nnc1-c1ccoc1C,EC50,[1],1.5 µM (active)
